Data taken from patent publication US12472168B2, “Ring-fused thiazolino 2-pyridones, methods for preparation thereof and their use in the treatment and/or prevention of a disease involving gram-positive bacteria” (Quretech Bio AB, priority 2017, dated 2025).
Values after ≈ are worked out from the molar mass of the structure shown.

Columns and labels:
MRSA [1] = test: Minimum Inhibitory Concentration (MIC) and Minimum Bactericidal Concentration (MBC) assays; assay type: cell-based, Methicillin-resistant Staphylococcus aureus; conditions: Staphylococcus aureus, compound alone, no antibiotic; for MIC: 18 h, overnight (18 hrs), read-out: MIC
Protocol: (§1) MIC was defined by the lowest concentration of the test compound that inhibits visible growth of pathogen of interest. The optical density of the pathogen of interest culture was measured by OD600.
(§2) MBC was determined colony forming units (CFUs) enumeration by serially diluting and plating bacterial cultures on BHI plates.
(§3) Thus, no antibiotic was used in Table 2.

E. faecalis = test: MIC and MBC assays; assay type: cell-based; conditions: Enterococcus faecalis, compound alone, no antibiotic; for MIC: overnight (18 hrs)
Protocol: as §1, §2, §3

Streptococcus = test: MIC and MBC assays; assay type: cell-based; conditions: compound alone, no antibiotic
Protocol: as §1, §2, §3

E. faecalis OG1RF = test: Stand alone activity in vivo, mouse model of catheter-associated urinary tract infection (CAUTI); parameters: species or system Enterococcus faecalis; conditions: C57BL/6Ncr mice, 10 mg/kg intraperitoneally 24 hours post-infection, sacrificed 48 hours post-infection, compound alone
Protocol: Mice used in this study were six-week-old female wild-type C57BL/6Ncr mice. Mice were anesthetized by inhalation of isoflurane and implanted with a 5-mm length of platinum-cured silicone catheter. Then, mice were infected immediately following catheter implantation with 50 μl of ˜2×10^7 CFU of E. faecalis OG1RF in PBS (1 mL) was introduced in the bladder lumen by transurethral inoculation. […] Mice were sacrificed at 48 hours post-infection by cervical dislocation after anaesthesia inhalation, and the bladders were aseptically harvested. Subsequently, the silicone implant was retrieved from the bladder. Catheters were placed in 1×PBS (1 mL), sonicated for 10 min, to detach E. faecalis and bladders were homogenized in 1×PBS (1 mL).
Mice used in this study were six-week-old female wild-type C57BL/6Ncr mice. Mice were anesthetized by inhalation of isoflurane and implanted with a 5-mm length of platinum-cured silicone catheter.
Mice were sacrificed at 48 hours post-infection by cervical dislocation after anaesthesia inhalation, and the bladders were aseptically harvested. Subsequently, the silicone implant was retrieved from the bladder. Catheters were placed in 1×PBS (1 mL), sonicated for 10 min, to detach E. faecalis and bladders were homogenized in 1×PBS (1 mL). For bacterial enumeration on catheters and bladder, samples were serially diluted and plated on BHI for CFU enumeration.

Staph. aureus = test: MIC and MBC assays; assay type: cell-based; conditions: Staphylococcus aureus, compound alone, no antibiotic; for MIC: overnight (18 hrs)
Protocol: (§4) […]. MIC was defined by the lowest concentration of the test compound that inhibits visible growth of pathogen of interest. The optical density of the pathogen of interest culture was measured by OD600.
(§5) […]. MBC was determined colony forming units (CFUs) enumeration by serially diluting and plating bacterial cultures on BHI plates.
(§6) . Thus, no antibiotic was used in Table 2.

Staph. saphyticus = test: MIC and MBC assays; assay type: cell-based; conditions: Staphylococcus, compound alone, no antibiotic; for MIC: overnight (18 hrs)
Protocol: as §4, §5, §6

Strep. pyogenes = test: MIC and MBC assays; assay type: cell-based; conditions: Streptococcus pyogenes, compound alone, no antibiotic; for MIC: overnight (18 hrs)
Protocol: as §4, §5, §6

C. diff = test: MIC and MBC assays; assay type: cell-based, Clostridium difficile; conditions: Clostridioides difficile, compound alone, no antibiotic; for MIC: overnight (18 hrs)
Protocol: as §4, §5, §6

MRSA [2] = test: Effect of combination with Oxacillin on MRSA, CFU counts; assay type: cell-based, Methicillin-resistant Staphylococcus aureus; conditions: Oxacillin 9 μM and DMSO (no test compound), 37° C. 18 h
Protocol: The mixture (200 μL) was incubated at 37° C. for 18 h. A control without the test compound was performed in the same way.

SMILES | MIC (MRSA [1]) | MBC (MRSA [1]) | MBC (E. faecalis) | MIC (E. faecalis) | MBC (Streptococcus) | reduction of bacterial titers in the bladder (E. faecalis OG1RF) | reduction of bacterial titers on the catheters (E. faecalis OG1RF) | MBC (Staph. aureus) | MIC (Staph. aureus) | MBC (Staph. saphyticus) | MIC (Staph. saphyticus) | MBC (Strep. pyogenes) | MIC (Strep. pyogenes) | MBC (C. diff) | MIC (C. diff) | reduction of bacterial titers in the bladder (E. faecalis OG1RF; 10 mg/kg) | CFUs/ml (MRSA [2]; MRSA OD 0.001) | CFUs/ml (MRSA [2]; MRSA OD 0.1) | CFUs/ml (MRSA [2]; MRSA OD 1)
CCCOc1ccc(-c2sc3c(OC)c(Cc4cccc5ccccc45)cc(=O)n3c2C(=O)O)cc1C [Example 10, 5-Methoxy-4-[(1-naphthyl)methyl]-2-oxo-8-(4-propoxy-3-methyl-phenyl)-7-thia-1-azabicyclo[4.3.0]nona-3,5,8-triene-9-carboxylic acid] | 17 µM (≈ 8.73 µg/mL) | 17 µM (≈ 8.73 µg/mL) | 50 µM (≈ 25.7 µg/mL) | 188 µM (≈ 96.6 µg/mL) | 5 µM (≈ 2.57 µg/mL) |  |  |  |  |  |  |  |  |  |  |  |  |  | 
CCCCCOc1ccc(-c2sc3c(C4CC4)c(Cc4cccc5ccccc45)cc(=O)n3c2C(=O)O)cc1 [Example 12, 5-Cyclopropyl-4-[(1-naphthyl)methyl]-2-oxo-8-[p-(pentyloxy)phenyl]-7-thia-1-azabicyclo[4.3.0]nona-3,5,8-triene-9-carboxylic acid] | 70 µM (≈ 37.6 µg/mL) | 25 µM (≈ 13.4 µg/mL) |  | 300 µM (≈ 161 µg/mL) | 2 µM (≈ 1.08 µg/mL) |  |  |  |  |  |  |  |  |  |  |  |  |  | 
CCCCOc1ccc(-c2sc3c(C4CC4)c(Cc4cccc5ccccc45)cc(=O)n3c2C(=O)O)cc1 [Example 13, 8-(p-Butoxyphenyl)-5-cyclopropyl-4-[(1-naphthyl)methyl]-2-oxo-7-thia-1-azabicyclo[4.3.0]nona-3,5,8-triene-9-carboxylic acid] | 31 µM (≈ 16.2 µg/mL) | 25 µM (≈ 13.1 µg/mL) |  | 300 µM (≈ 157 µg/mL) | 3 µM (≈ 1.57 µg/mL) |  |  |  |  |  |  |  |  |  |  |  |  |  | 
COc1c(Cc2cccc3ccccc23)cc(=O)n2c(C(=O)O)c(-c3ccc(OCCCC(C)C)c(C)c3)sc12 [Example 23, 8-[4-(Isohexyloxy)-3-methyl-phenyl]-5-methoxy-4-[(1-naphthyl)methyl]-2-oxo-7-thia-1-azabicyclo[4.3.0]nona-3,5,8-triene-9-carboxylic acid] | 45 µM (≈ 25 µg/mL) |  |  | > 100 µM |  | about 1.5 log units | about 0.4 log units |  |  |  |  |  |  |  |  |  |  |  | 
O=C(O)c1c(Cc2ccccc2)sc2c(C3CC3)c(Cc3cccc4ccccc34)cc(=O)n12 [Example 28, 8-Benzyl-5-cyclopropyl-4-[(1-naphthyl)methyl]-2-oxo-7-thia-1-azabicyclo[4.3.0]nona-3,5,8-triene-9-carboxylic acid] | 25 µM (≈ 11.6 µg/mL) | 50 µM (≈ 23.3 µg/mL) | 100 µM (≈ 46.6 µg/mL) | 25 µM (≈ 11.6 µg/mL) |  | about 0.5 log units | about 0.4 log units | 50 µM (≈ 23.3 µg/mL) | 25 µM (≈ 11.6 µg/mL) | 25 µM (≈ 11.6 µg/mL) | 100 µM (≈ 46.6 µg/mL) | 25 µM (≈ 11.6 µg/mL) | 12.5 µM (≈ 5.82 µg/mL) | 50 µM (≈ 23.3 µg/mL) | 50 µM (≈ 23.3 µg/mL) |  |  |  | 
Cc1cccc(-c2sc3c(C4CC4)c(Cc4cccc5ccccc45)cc(=O)n3c2C(=O)O)c1 [Example 30, 5-Cyclopropyl-4-[(1-naphthyl)methyl]-2-oxo-8-(m-tolyl)-7-thia-1-azabicyclo[4.3.0]nona-3,5,8-triene-9-carboxylic acid] | 25 µM (≈ 11.6 µg/mL) | 50 µM (≈ 23.3 µg/mL) | 100 µM (≈ 46.6 µg/mL) | 50 µM (≈ 23.3 µg/mL) | 19 µM (≈ 8.85 µg/mL) | about 1.5 log units | about 1 log units | 50 µM (≈ 23.3 µg/mL) | 50 µM (≈ 23.3 µg/mL) | 12.5 µM (≈ 5.82 µg/mL) | 100 µM (≈ 46.6 µg/mL) | 12.5 µM (≈ 5.82 µg/mL) | 25 µM (≈ 11.6 µg/mL) | 50 µM (≈ 23.3 µg/mL) | 50 µM (≈ 23.3 µg/mL) |  |  |  | 
O=C(O)C1CSc2c(-c3cccc(C(F)(F)F)c3)c(Cc3c4ccccc4cc4ccccc34)cc(=O)n21 (centres unmarked) [Example 37, 6-[(9-Anthryl)methyl]-4-oxo-7-[m-(trifluoromethyl)phenyl]-1-thia-3a-aza-3-indancarboxylic acid] | 25 µM (≈ 13.3 µg/mL) | 25 µM (≈ 13.3 µg/mL) | 400 µM (≈ 213 µg/mL) | 100 µM (≈ 53.2 µg/mL) |  |  |  | 50 µM (≈ 26.6 µg/mL) | 50 µM (≈ 26.6 µg/mL) | 25 µM (≈ 13.3 µg/mL) | > 500 µM | 12.5 µM (≈ 6.64 µg/mL) | 12.5 µM (≈ 6.64 µg/mL) | 50 µM (≈ 26.6 µg/mL) | 50 µM (≈ 26.6 µg/mL) |  |  |  | 
O=C(O)C1CSc2c(-c3cccc(C(F)(F)F)c3)c(Cc3cccc4ccccc34)cc(=O)n21 (centres unmarked) [Example 38, 6-[(1-Naphthyl)methyl]-4-oxo-7-[m-(trifluoromethyl)phenyl]-1-thia-3a-aza-3-indancarboxylic acid] | 200 µM (≈ 96.3 µg/mL) | 250 µM (≈ 120 µg/mL) | 250 µM (≈ 120 µg/mL) | 200 µM (≈ 96.3 µg/mL) |  |  |  | 250 µM (≈ 120 µg/mL) | 200 µM (≈ 96.3 µg/mL) | 50 µM (≈ 24.1 µg/mL) | 250 µM (≈ 120 µg/mL) | 50 µM (≈ 24.1 µg/mL) | 50 µM (≈ 24.1 µg/mL) | 200 µM (≈ 96.3 µg/mL) | 200 µM (≈ 96.3 µg/mL) |  |  |  | 
O=C(O)C1C(c2ccccc2)Sc2c(-c3ccc4c(c3)OCO4)c(COc3cccc4ccccc34)cc(=O)n21 (centres unmarked) [Example 39, 6-[(1-Naphthyloxy)methyl]-4-oxo-2-phenyl-7-(1,3-Dioxa-5-indanyl)-1-thia-3a-aza-3-indancarboxylic acid] | 50 µM (≈ 27.5 µg/mL) | 50 µM (≈ 27.5 µg/mL) | 900 µM (≈ 495 µg/mL) | 400 µM (≈ 220 µg/mL) |  |  |  | 200 µM (≈ 110 µg/mL) | 50 µM (≈ 27.5 µg/mL) | 25 µM (≈ 13.7 µg/mL) | > 500 µM | 25 µM (≈ 13.7 µg/mL) | 12.5 µM (≈ 6.87 µg/mL) | 100 µM (≈ 55 µg/mL) | 100 µM (≈ 55 µg/mL) |  |  |  | 
COc1c(Cc2cccc3ccccc23)cc(=O)n2c(C(=O)O)c(-c3ccc(OCCCC(C)C)c(C)c3)sc12 [Example 50, 1H-imidazol-1-ium 8-methoxy-2-(3-methyl-4((4-methylpentyl)oxy)phenyl)-7-(naphtalen-1-ylmethyl)-5-oxo-thiazolo[3,2-a]pyridine-3-carboxylate] |  |  |  |  |  |  |  |  |  |  |  |  |  |  |  | about 0.5 log units |  |  | 
Cc1onc(-c2ccccc2)c1C(=O)N[C@@H]1C(=O)N2[C@@H]1SC(C)(C)[C@@H]2C(=O)O [Oxacillin, oxacillin, reference compound] |  |  |  |  |  |  |  |  |  |  |  |  |  |  |  |  | 600 CFUs/ml | 1.6E+10 CFUs/ml | 2.2E+09 CFUs/ml
